This is an account of results in ChEMBL document CHEMBL1201862, “PubChem BioAssay data set” (2004).

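Compound exposure: 48 hours, 5 concentrations, 96-well plates. At the GI50, growth is halved.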 Calls of active or inactive are those of the source. No stated cut-off is given here; in the data, active = GI50 up to about 1.1 µM and inactive = higher. Where a SMILES comes first, the peptide text is derived from it. The star is where a group is joined. Fmoc = O=C(OCC1c2ccccc2-c2ccccc21)*; OBn = c1ccc(CO*)cc1; tBu = CC(C)(C)*

Test systems include MOLT-4; Hs-578T; SNB-75; ACHN; DU-145; SF-539; COLO 205; KM12; BT-549; NCI-H522; HOP-62; UACC-257; SK-MEL-5; OVCAR-3; SK-OV-3; HCT-116; RXF 393; MDA-N; K562.
Holding throughout (test): growth of human tumour cells (NCI), 48 h

Regarding `CCOC(=O)c1c(N2CCCC2)[nH]c(=O)c(C(c2ccco2)c2c(O)c(C(=O)OCC)c(N3CCCC3)[nH]c2=O)c1O`, the GI50 is > 100 µM (inactive) in the experiment on MOLT-4; 27.9 µM (inactive) in the experiment with Hs-578T; 23.4 µM (inactive) in the experiment with SNB-75; 95.5 µM (inactive) in the experiment with ACHN; > 100 µM (inactive) in the experiment with DU-145; > 100 µM (inactive) in the experiment with SF-539. The GI50 is > 100 µM (inactive) in the experiment with COLO 205; > 100 µM (inactive) with KM12; > 100 µM (inactive) with BT-549; 84.9 µM (inactive) in the experiment with NCI-H522; 50.6 µM (inactive) in the experiment on HOP-62; > 100 µM (inactive) in the experiment on UACC-257. Also, the GI50 in the experiment on SK-MEL-5 is 82.6 µM (inactive); in the experiment on OVCAR-3, > 100 µM (inactive); in the experiment with SK-OV-3, > 100 µM (inactive); with HCT-116 it was > 100 µM (inactive); with RXF 393, 54.5 µM (inactive); in the experiment with MDA-N it was > 100 µM (inactive). Besides, the GI50 in the experiment on K562 was > 100 µM (inactive).

Take `COC(=O)c1c(OC(C)=O)ccc2c1c1c(OC(C)=O)c3ccccc3c(OC(C)=O)c1n2Cc1ccccc1`: the GI50 with MOLT-4 is 7.46 µM (inactive); in the experiment with Hs-578T, 16.9 µM (inactive); in the experiment on SNB-75 it was 1.76 µM (inactive); in the experiment with ACHN, 11.8 µM (inactive); with DU-145, 11.1 µM (inactive); with SF-539, 1.61 µM (inactive). The GI50 is 7.91 µM (inactive) in the experiment on COLO 205; 1.49 µM (inactive) in the experiment with KM12; 4.76 µM (inactive) in the experiment on BT-549; 0.783 µM (active) with NCI-H522; 8.61 µM (inactive) in the experiment with HOP-62; 16.3 µM (inactive) in the experiment on UACC-257. Besides, the GI50 was 3.02 µM (inactive) with SK-MEL-5; 1.21 µM (inactive) with OVCAR-3; 3.67 µM (inactive) in the experiment on SK-OV-3; 3.96 µM (inactive) in the experiment with HCT-116; 5.77 µM (inactive) in the experiment with RXF 393; 14.2 µM (inactive) in the experiment with MDA-N. Besides, the GI50 in the experiment on K562 was 5.33 µM (inactive).

Regarding `Cc1ncc(C/N=C/c2ccc(Cl)cc2)c(N)n1`, the GI50 in the experiment on MOLT-4, in the experiment with Hs-578T, with SNB-75, with ACHN, in the experiment on DU-145 and in the experiment on SF-539 was > 100 µM (inactive) in each case. Also, the GI50 in the experiment on COLO 205, with KM12, in the experiment on BT-549, in the experiment on NCI-H522, in the experiment on HOP-62 and with UACC-257 was > 100 µM (inactive) throughout. Also, the GI50 in the experiment on SK-MEL-5, in the experiment with OVCAR-3, in the experiment with SK-OV-3, with HCT-116, in the experiment on RXF 393 and in the experiment with MDA-N was > 100 µM (inactive) throughout. In addition, in the experiment on K562, the GI50 is > 100 µM (inactive).

`COc1cc(-c2[o+]c3cc(O)cc(OC4OC(CO)C(O)C(O)C4O)c3cc2OC2OC(CO)C(O)C(O)C2O)cc(OC)c1O` (stereo not drawn): the GI50 with MOLT-4, in the experiment with Hs-578T, in the experiment on SNB-75, in the experiment on ACHN, in the experiment with DU-145 and in the experiment with SF-539 was > 100 µM (inactive) each time. Further, the GI50 in the experiment with COLO 205, with KM12, in the experiment on BT-549, in the experiment on NCI-H522, in the experiment on HOP-62 and in the experiment on UACC-257 was > 100 µM (inactive) each time. Also, the GI50 with SK-MEL-5, in the experiment on OVCAR-3, with SK-OV-3, with HCT-116, in the experiment on RXF 393 and in the experiment with MDA-N was > 100 µM (inactive) throughout. The GI50 with K562 is > 100 µM (inactive).

Take `O=C(O)CCCCn1cnc2c(S)ncnc21`: the GI50 in the experiment with MOLT-4, with Hs-578T, in the experiment on SNB-75, in the experiment with ACHN, in the experiment on DU-145 and in the experiment with SF-539 was > 100 µM (inactive) throughout. Also, the GI50 with COLO 205, in the experiment with KM12, with BT-549, with NCI-H522, in the experiment with HOP-62 and with UACC-257 was > 100 µM (inactive) throughout. The GI50 in the experiment on SK-MEL-5, in the experiment on OVCAR-3, in the experiment with SK-OV-3, in the experiment on HCT-116, in the experiment on RXF 393 and in the experiment on MDA-N was > 100 µM (inactive) in each case. The GI50 in the experiment on K562 was > 100 µM (inactive).

As to `CC(=O)NCCC1CN(C(=O)/C=C\I)c2ccccc21` (stereo not drawn), the GI50 in the experiment with MOLT-4 is 5.53 µM (inactive); with Hs-578T it was 27.2 µM (inactive); with SNB-75, 17.8 µM (inactive); with ACHN, 14.5 µM (inactive); in the experiment with DU-145, 13.9 µM (inactive); in the experiment on SF-539, 5.32 µM (inactive). For the same molecule, the GI50 with COLO 205 is 11.7 µM (inactive); in the experiment with KM12 it was 5.7 µM (inactive); with BT-549 it was 21.6 µM (inactive); in the experiment on NCI-H522 it was 1.78 µM (inactive); in the experiment on HOP-62 it was 11.2 µM (inactive); in the experiment with UACC-257 it was 13.8 µM (inactive). For the same molecule, the GI50 in the experiment with SK-MEL-5 is 3.48 µM (inactive); in the experiment on OVCAR-3 it was 15 µM (inactive); in the experiment with SK-OV-3, 20 µM (inactive); in the experiment on HCT-116, 14.6 µM (inactive); in the experiment with RXF 393, 7.29 µM (inactive); with MDA-N, 12.6 µM (inactive). Besides, the GI50 in the experiment on K562 is 3.76 µM (inactive).

Turning to `CC(OC(C)(C)C)C(NC(=O)OCC1c2ccccc2-c2ccccc21)C(=O)NC(Cc1ccccc1)C(=O)OCc1ccccc1` (stereo not drawn) (Fmoc-Thr(tBu)-Phe-OBn; configuration not given here), the GI50 in the experiment on MOLT-4 is > 61.9 µM (inactive); with Hs-578T, > 100 µM (inactive); in the experiment with SNB-75 it was > 100 µM (inactive); with ACHN it was > 100 µM (inactive); in the experiment on DU-145, > 100 µM (inactive); in the experiment on SF-539, > 100 µM (inactive). In addition, the GI50 was > 100 µM (inactive) with COLO 205; > 100 µM (inactive) in the experiment on KM12; > 100 µM (inactive) with BT-549; > 100 µM (inactive) with NCI-H522; > 93.8 µM (inactive) with HOP-62; > 100 µM (inactive) with UACC-257. Also, the GI50 in the experiment with SK-MEL-5, with OVCAR-3, with SK-OV-3, in the experiment with HCT-116, in the experiment with RXF 393 and in the experiment with MDA-N was > 100 µM (inactive) throughout. For the same molecule, the GI50 in the experiment with K562 was > 100 µM (inactive).
